Assay results from patent US10351871B2, “Desaturases and methods of using them for synthesis of polyunsaturated fatty acids” (Washington State University, priority 1998, dated 2019).

What was measured:
[1] = molecular target: T1, Euglena Δ^8-desaturase (EFD1) (Euglena gracilis, UniProt Q9SWQ9); type: cell-based; conditions: for desaturated share of the total incorporated 20-carbon fatty acid: S. cerevisiae with pYES2-541, 2% galactose, 0.2 mM fatty acid soap, overnight at 28° C.; for substrate preference over 20:1: EFD1 expressed in yeast; for desaturation of Δ^5 and Δ^6 substrates by EFD1 (in words): S. cerevisiae with pYES2-541, medium supplemented with the fatty acid
T1 construct: The resulting yeast expression construct containing the open reading frame under the control of a galactose-inducible promoter was designated pYES2-541; expressed in transfected cells; host or cells: Saccharomyces cerevisiae INVSc1, plasmid pYES2-541 (GAL1 promoter)
From the text: For E. gracilis, the cloned Δ^8 gene was transferred to the yeast expression vector pYES2 (Invitrogen, Carlsbad, Calif.) by standard cloning techniques (Ausubel, Current Protocols In Molecular Biology, 1988) using enzymes obtained from New England Biolabs, Beverly, Mass. The resulting yeast expression construct containing the open reading frame under the control of a galactose-inducible promoter was designated pYES2-541.
Saccharomyces cerevisiae strain INVSc1 (Invitrogen) was transformed with pYES2-541 and cultured using standard methods (Ausubel, Current Protocols In Molecular Biology, 1988). Liquid medium containing 2% galactose was supplemented with fatty acid soaps (NuCheck Prep, Elysian Minn.) at a final concentration of 0.2 mM. Tergitol (1%, NP40) was added to the yeast cultures to enhance fatty acid uptake (Stukey et al., J. Biol. Chem. 264:16537-16544, 1989), except for cultures containing 20:1, where 5% DMSO was substituted. Yeast were incubated overnight at 28° C., harvested by centrifugation, washed once with 1% Tergitol, once with 0.5% Tergitol, and finally once with distilled water.
(§1) Extraction of lipids and preparation of fatty acid methyl esters was carried out by standard methods (Miguel and Browse, J. Biol. Chem. 267:1502-1509, 1992). Gas chromatography of the methyl esters was conducted by established methods (Spychalla et al., Proc. Natl. Acad. Sci. USA 94:1142-1147, 1997). Fatty acid 4,4-Dimethyloxazoline (DMOX) derivatives of yeast lipid extracts were prepared by standard methods (Fay and Richli, J. Chromatogr. 541:89-98, 1991). GC-mass spectrometry was conducted on a Hewlett-Packard 6890 series GC-MS fitted with a 30 m×[…] HPSMS column, operating at an ionization voltage of 70 eV with a scan range of 50-550 Da. Fatty acids and their derivatives were identified where possible by comparison with authentic standards (NuCheck Prep).
To confirm the activity of the enzyme, the EFD1 cDNA was transferred from pJW541 to yeast expression vector pYES2 under the control of a galactose-inducible promoter. The resulting construct, pYES2-541, was introduced into S. cerevisiae. […] Accordingly, yeast cultures were supplemented with various fatty acid soaps, using a yeast strain containing the empty vector as control, and analyzed the fatty acids of the cultures by methyl-ester derivatization and gas chromatography.

[2] = molecular target: T2, C. elegans Δ^5-desaturase (FAT-4) (Caenorhabditis elegans, UniProt G5EG11); experiment: C. elegans FAT-4 (pYES2, fat-4) expressed in yeast fed fatty acid substrates, GC analysis; type: cell-based; conditions: for activity of FAT-4 on substrate (in words): yeast expressing FAT-4, substrate fed; for substrate converted to desaturation product: yeast expressing FAT-4, 2% galactose, 0.2 mM fatty acid, 16 hours, 18:1 is endogenous; for amount desaturated relative to conventional substrate 20:3Δ^8,11,14: yeast expressing the C. elegans Δ^5-desaturase gene
T2 construct: The resulting peptide length was 447 amino acids instead of the previously predicted 454 amino acids; expressed in transfected cells; host or cells: Saccharomyces cerevisiae INVSc1, plasmid pYFAT4 (pYES2, GAL1 promoter)
T2 sequence (G5EG11 1-447): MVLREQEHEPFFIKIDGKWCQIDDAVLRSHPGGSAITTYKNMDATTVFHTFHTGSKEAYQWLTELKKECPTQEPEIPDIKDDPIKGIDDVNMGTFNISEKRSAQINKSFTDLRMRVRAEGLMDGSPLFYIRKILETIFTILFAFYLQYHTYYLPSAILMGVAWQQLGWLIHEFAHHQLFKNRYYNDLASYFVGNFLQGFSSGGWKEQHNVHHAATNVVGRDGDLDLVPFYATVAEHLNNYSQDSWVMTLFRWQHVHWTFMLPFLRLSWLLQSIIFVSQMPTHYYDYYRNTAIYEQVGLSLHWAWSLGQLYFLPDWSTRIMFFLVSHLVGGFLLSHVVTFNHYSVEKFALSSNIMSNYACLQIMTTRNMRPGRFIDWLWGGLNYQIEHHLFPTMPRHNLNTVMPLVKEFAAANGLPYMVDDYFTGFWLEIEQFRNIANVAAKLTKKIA
Description: To express the C. elegans Δ^5-desaturase, the fat-4 cDNA amplification product (see Example 3) was digested with HindIII and BamH1 and ligated to the yeast expression vector pYES2 (Invitrogen) cut with HindIII and BamH1. The resulting plasmid was named pYFAT4.
For the C. elegans Δ^5 gene, the constructs were transformed into Saccharomyces cerevisiae strain INVSc1 using the S.c. EasyComp transformation kit (Invitrogen). For experiments with the FAT-4 peptide, transformed yeast were grown overnight in uracil-deficient media containing 2% galactose, 0.2 mM fatty acid, and 1% NP-40.
as §1
To determine the enzymatic activity of the FAT-4 desaturase-like protein, the protein was expressed in Saccharomyces cerevisiae supplemented with polyunsaturated fatty acid substrates that are not normally present in this yeast. The FAT-4 protein was expressed in the yeast expression vector pYES2 from the GAL1 promoter by growing the cells in the presence of galactose and various fatty acids. After 16 hours of growth, the cells were analyzed for total fatty acid composition by gas chromatography (GC).

[3] = molecular target: T3, C. elegans Δ^6-desaturase (FAT-3) (Caenorhabditis elegans, UniProt Q23221); experiment: C. elegans FAT-3 expressed in yeast (pMK195, ADH promoter), substrate desaturation; type: cell-based; conditions: yeast expressing fat-3 from pMK195
T3 construct: Codons for amino acid residues 38-67 of W08D2.4 were not present in the cDNA; expressed in transfected cells; host or cells: yeast (Saccharomyces cerevisiae), vector pMK195, constitutive ADH promoter
T3 sequence (Q23221 1-443): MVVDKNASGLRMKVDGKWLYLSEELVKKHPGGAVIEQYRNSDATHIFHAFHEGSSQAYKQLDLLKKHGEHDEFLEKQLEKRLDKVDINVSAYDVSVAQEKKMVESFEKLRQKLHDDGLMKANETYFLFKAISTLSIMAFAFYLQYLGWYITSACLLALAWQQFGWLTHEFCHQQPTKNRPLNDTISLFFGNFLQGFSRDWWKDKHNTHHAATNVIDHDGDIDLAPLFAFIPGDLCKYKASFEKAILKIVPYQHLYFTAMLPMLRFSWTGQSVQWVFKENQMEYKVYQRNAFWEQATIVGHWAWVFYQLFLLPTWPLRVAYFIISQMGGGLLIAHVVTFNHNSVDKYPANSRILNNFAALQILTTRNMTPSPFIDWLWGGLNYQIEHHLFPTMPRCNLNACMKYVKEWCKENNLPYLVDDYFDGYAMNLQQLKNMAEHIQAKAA
From the text: The fat-3 gene was expressed in the yeast expression vector pMK195 containing the constitutive ADH promoter.

Δ^5- and Δ^8-desaturases = experiment: Yeast cell transformed with both Δ^5- and Δ^8-desaturase genes (pYFAT4 + pYX232-541) fed fatty acid substrates, GC; type: cell-based, Saccharomyces cerevisiae; conditions: for One added desaturation / Unconverted substrate: overnight culture at 28° C.; for Doubly desaturated product: products 20:5 (5, 8, 11, 14, 17), 20:4 (5, 8, 11, 14), 20:3 (5, 8, 11)
From the text: The cDNA portion of pJW541 (Wallis and Browse, Arch. Biochem. Biophys. 365:307-316, 1999) containing the Euglena Δ^8-desaturase was excised from that plasmid with the restriction enzymes EcoRI and SpeI. The purified DNA fragment representing the insert was ligated into the yeast expression vector pYX232 (R&D Systems, Inc.) that had been prepared by digestion with EcoRI and NheI, to give compatible sticky ends. (Plasmid pYX232 carries the marker conferring yeast prototrophy for tryptophan (TRP1 mutation), and uses the triose phosphate isomerase (TPI) promoter for constitutive expression of the inserted DNA.) The resulting plasmid, pYX232-541, was introduced into the Saccharomyces cerevisiae strain already harboring the Δ^5-desaturase (pYFAT4; Watts and Browse, Arch. Biochem. Biophys. 362:175-182, 1999) plasmid that confers yeast prototrophy for uracil using a lithium acetate transformation procedure (Invitrogen). Transformants were selected simultaneously for uracil and tryptophan prototrophy. Selected colonies arising after the transformation were inoculated into yeast minimal medium that also lacked both uracil and tryptophan.
For analysis of activity, separate cultures were supplemented with one of three fatty acid substrates provided as sodium salts as described (Wallis and Browse, Arch. Biochem. Biophys. 365:307-316, 1999). After overnight culture at 28° C., the cultures were harvested by centrifugation and washed. Fatty acid methyl esters were prepared using the standard methods described in Miguel and Browse J. Biol. Chem. 267:1502-1509, 1992.

[4] = molecular target: T4, Δ^5-desaturase activity in microsomal extracts of mammalian liver (Rattus norvegicus, UniProt Q920R3); conditions: labeled substrate; cited from earlier work
T4 construct: the rates of desaturation in microsomal extracts of mammalian liver; host or cells: microsomal extracts of mammalian liver

Δ^5-desaturase = molecular target: T5, Δ^5-desaturase (Caenorhabditis elegans, UniProt G5EG11); experiment: Arabidopsis plants doubly transformed with both desaturases, seed fatty acid methyl ester analysis; type: in vivo; conditions: seed from plants doubly transformed with both desaturases
T5 construct: expressed in transfected cells; host or cells: Arabidopsis plants (seed) doubly transformed with Δ8 and Δ5 constructs
T5 sequence (G5EG11 1-447): T2 sequence (G5EG11 1-447)
From the text: For example, the expression of the Δ^5- and Δ^8-desaturases in a plant, such as Arabidopsis, can be achieved by constructing a plant transformation vector to introduce the cDNA of each desaturase into the plant. The vector can contain a tissue specific promoter so that the desaturase protein will be expressed during seed development. Examples of seed specific promoters include that for phaseolin (van der Geest and Hall, Plant Mol. Biol. 32:579-88, 1996) or the promoter for napin (Stalberg et al., Plant Mol. Biol. 23: 671-83, 1993). Other seed-specific promoters that can be used are those located on the genomic BAC clone T24A18 (LOCUS ATT24A18. (1999) 45980 bp Arabidopsis thaliana DNA chromosome 4, ACCESSION # AL035680, NID g4490701) of the Arabidopsis genome. […] Transformation of Arabidopsis is readily achieved using the Agrobacterium-mediated vacuum infiltration process (Katavic et al., Mol. Gen. Genet. 245:363-70, 1994) or the floral dip modification of it (Clough and Bent, Plant J. 16:735-43, 1998), although several other methods are also commonly used. […] Since the Δ^8 and Δ^5 constructs use different selectable markers the double transformants are readily isolated. […] The seeds of transformed plants are analyzed by isolation of fatty acid methyl esters followed by gas chromatography to determine the fatty acid composition.

T1 sequence (Q9SWQ9 other isoform, or with tags, fused parts or gaps with the stated changes): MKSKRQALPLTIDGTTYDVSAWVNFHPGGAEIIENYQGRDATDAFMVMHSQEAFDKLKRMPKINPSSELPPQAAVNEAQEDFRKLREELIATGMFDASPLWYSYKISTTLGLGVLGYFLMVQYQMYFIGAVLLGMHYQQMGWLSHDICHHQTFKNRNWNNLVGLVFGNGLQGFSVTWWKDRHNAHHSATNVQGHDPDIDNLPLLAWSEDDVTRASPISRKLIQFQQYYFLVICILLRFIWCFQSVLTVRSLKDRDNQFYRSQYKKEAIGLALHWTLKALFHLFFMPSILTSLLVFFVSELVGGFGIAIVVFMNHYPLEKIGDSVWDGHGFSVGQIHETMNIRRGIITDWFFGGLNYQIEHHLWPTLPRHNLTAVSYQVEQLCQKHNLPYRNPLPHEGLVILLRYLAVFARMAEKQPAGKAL
T4 sequence (Q920R3 whole entry, stated change not applied): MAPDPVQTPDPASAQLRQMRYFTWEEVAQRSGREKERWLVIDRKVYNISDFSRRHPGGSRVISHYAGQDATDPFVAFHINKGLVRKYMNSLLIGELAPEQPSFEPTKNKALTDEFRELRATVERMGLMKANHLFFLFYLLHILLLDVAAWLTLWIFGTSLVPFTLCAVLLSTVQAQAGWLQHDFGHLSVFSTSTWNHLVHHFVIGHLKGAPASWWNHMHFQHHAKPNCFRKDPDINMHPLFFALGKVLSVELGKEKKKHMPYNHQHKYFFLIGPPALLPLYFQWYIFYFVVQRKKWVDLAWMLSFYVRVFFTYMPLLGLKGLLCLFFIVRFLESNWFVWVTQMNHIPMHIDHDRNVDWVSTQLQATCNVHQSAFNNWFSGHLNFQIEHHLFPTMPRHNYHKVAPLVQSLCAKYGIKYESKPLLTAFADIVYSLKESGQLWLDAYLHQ

Row | Compound | desaturated share of the total incorporated 20-carbon fatty acid [1] [%] | activity of FAT-4 on substrate (in words) [2] | activity of FAT-3 on substrate (in words) [3] | One added desaturation (Δ^5- and Δ^8-desaturases) | Unconverted substrate (Δ^5- and Δ^8-desaturases) | Doubly desaturated product (Δ^5- and Δ^8-desaturases) | substrate converted to desaturation product [2] [%] | further results
1 | CCCCCCCCC=CCCCCCCCCCC(=O)O [20:1Δ^11] | 32 | No novel peaks were detected | no activity | 18 mass percent of incorporated 20-carbon fatty acids | 72 mass percent of incorporated 20-carbon fatty acids | 11 mass percent of incorporated 20-carbon fatty acids |  | 
2 | CCCCCC=CCC=CCCCCCCCCCC(=O)O [20:2Δ^11,14] | 73 |  | no activity | 18 mass percent of incorporated 20-carbon fatty acids | 70 mass percent of incorporated 20-carbon fatty acids | 13 mass percent of incorporated 20-carbon fatty acids | 27 | substrate preference over 20:1 [1]: greater than two-fold preference; amount desaturated relative to conventional substrate 20:3Δ^8,11,14 [2]: less than half; rate of conversion to 20:3Δ^5,11,14 relative to rate of conversion of labeled 20:3Δ^8,11,14 to 20:4Δ^5,8,11,14 [4]: 41%
3 | CCC=CCC=CCC=CCCCCCCCCCC(=O)O [20:3Δ^11,14,17] | 70 |  | no activity | 17 mass percent of incorporated 20-carbon fatty acids | 71 mass percent of incorporated 20-carbon fatty acids | 11 mass percent of incorporated 20-carbon fatty acids | 26 | substrate preference over 20:1 [1]: greater than two-fold preference; amount desaturated relative to conventional substrate 20:3Δ^8,11,14 [2]: less than half
4 | CCCCCCCCC=CCC=CCCCCCCC(=O)O [20:Δ^8,11] |  |  |  |  |  |  |  | conversion to 20:3Δ^5,8,11 in seed (Δ^5-desaturase): convert
5 | CCCCC/C=C\C/C=C\C/C=C\CCCCCCC(=O)O [di-homo-γ-linolenic acid] |  |  | no activity |  |  |  | 55 | 
6 | CCCCC/C=C\C/C=C\CCCCCCCC(=O)O [linoleic acid] |  | no activity | able to desaturate |  |  |  |  | desaturation of Δ^5 and Δ^6 substrates by EFD1 (in words) [1]: no desaturation occurred
7 | CC/C=C\C/C=C\C/C=C\CCCCCCCC(=O)O [α-linolenic acid] |  |  | capable of desaturating |  |  |  |  | desaturation of Δ^5 and Δ^6 substrates by EFD1 (in words) [1]: no desaturation occurred
8 | CCCCC/C=C\C/C=C\C/C=C\CCCCC(=O)O [γ-linolenic acid] |  | no activity |  |  |  |  |  | 
